Results taken from the NIST ThermoML archive (doi:10.1021/acs.jced.7b00026).
Numbers after ± are expanded uncertainties.

Legend:
[1] = Liquid; for mass density: 293.15 K, 101.33 kPa, Vibrating tube method
[2] = Boiling temperature at pressure P; conditions: Liquid, Ebulliometric method (Recirculating still)
[3] = refractive index (Na D-line) (dimensionless); conditions: 293.15 K; 101.33 kPa; Liquid; Standard Abbe refractometry

SMILES | mass density [1] | vapor or sublimation pressure ([1]; 338.15 K, Ebullio) | vapor or sublimation pressure ([1]; 353.15 K, Ebullio) | vapor or sublimation pressure ([1]; 368.15 K, Ebullio) | Boiling temperature at pressure P ([2]; 39.89 kPa) | Boiling temperature at pressure P ([2]; 69.89 kPa) | refractive index [3] | Boiling temperature at pressure P ([2]; 14.9 kPa) | Boiling temperature at pressure P ([2]; 29.9 kPa) | Boiling temperature at pressure P ([2]; 59.89 kPa) | Boiling temperature at pressure P ([2]; 79.88 kPa) | other results
CC(=O)CC(C)C [4-methylpentan-2-one] | 800.3 ± 1 kg/m3 | 17.57 ± 1.4 kPa | 31.41 ± 2.4 kPa | 54.04 ± 4.2 kPa | 86.5 ± 0.2 °C | 103.21 ± 0.19 °C | 1.39586 ± 0.00085 | – | – | – | – | vapor or sublimation pressure ([1]; 323.15 K, Ebullio): 9.22 ± 0.72 kPa; Boiling temperature at pressure P ([2]; 9.22 kPa): 49.67 ± 0.38 °C; Boiling temperature at pressure P ([2]; 9.9 kPa): 51.26 ± 0.38 °C; Boiling temperature at pressure P ([2]; 17.52 kPa): 64.70 ± 0.27 °C; Boiling temperature at pressure P ([2]; 18.41 kPa): 65.96 ± 0.27 °C; Boiling temperature at pressure P ([2]; 31.36 kPa): 79.73 ± 0.22 °C; Boiling temperature at pressure P ([2]; 32.13 kPa): 80.39 ± 0.22 °C; Boiling temperature at pressure P ([2]; 53.99 kPa): 95.31 ± 0.2 °C
CCCO [propan-1-ol] | 803.66 ± 1 kg/m3 | 25.92 ± 2 kPa | 51 ± 4 kPa | 93.92 ± 7.3 kPa | 74.30 ± 0.2 °C | 87.44 ± 0.19 °C | 1.38512 ± 0.00086 | 53.83 ± 0.23 °C | 67.97 ± 0.2 °C | 83.71 ± 0.19 °C | 90.76 ± 0.19 °C | Boiling temperature at pressure P ([2]; 25.89 kPa): 64.94 ± 0.23 °C; Boiling temperature at pressure P ([2]; 51.21 kPa): 79.99 ± 0.19 °C; Boiling temperature at pressure P ([2]; 93.89 kPa): 94.87 ± 0.19 °C; Boiling temperature at pressure P ([2]; 99.88 kPa): 96.46 ± 0.18 °C
CC(C)O [propan-2-ol] | 784.99 ± 1 kg/m3 | – | – | – | 60.83 ± 0.2 °C | 73.30 ± 0.19 °C | 1.37718 ± 0.00086 | 41.28 ± 0.23 °C | 54.82 ± 0.2 °C | 69.8 ± 0.19 °C | 76.49 ± 0.19 °C | vapor or sublimation pressure ([1]; 323.15 K): 23.48 ± 1.8 kPa; vapor or sublimation pressure ([1]; 338.15 K): 48.45 ± 3.8 kPa; vapor or sublimation pressure ([1]; 353.15 K): 92.48 ± 7.2 kPa; Boiling temperature at pressure P ([2]; 23.43 kPa): 49.88 ± 0.22 °C; Boiling temperature at pressure P ([2]; 48.34 kPa): 64.99 ± 0.19 °C; Boiling temperature at pressure P ([2]; 92.4 kPa): 79.99 ± 0.18 °C; Boiling temperature at pressure P ([2]; 98.88 kPa): 81.67 ± 0.18 °C
